The source of these data is PubChem BioAssay AID330 (DTP/NCI, 2004).

The subject of this test is P388 leukemia ip, CD2F1 mice, survival T/C. Put plainly: NCI In Vivo Anticancer Drug Screen. Data for tumor model P388 Leukemia (intraperitoneal) in CD2F1 (CDF1) mice. The conditions noted are these: endpoint: median survival time, higher = longer survival. The gist of the method: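 Mice carrying the transplanted tumor received test compound or vehicle. Survival was recorded in each group, and the value is the treated-group measurement divided by that of the vehicle-treated control group.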

Setting [1] is: dose: 100.0 mg/kg/injection, schedule: Q01DX009 (ip), vehicle: saline.
[2] abbreviates: dose: 50.0 mg/kg/injection, schedule: Q01DX009 (ip), vehicle: saline with Tween-80.
Setting [3] is: dose: 100.0 mg/kg/injection, schedule: Q01DX009 (ip), vehicle: saline with Tween-80.
The mark [4] stands for this setting: dose: 200.0 mg/kg/injection, schedule: Q01DX009 (ip), vehicle: saline with Tween-80.
The mark [5] stands for this setting: dose: 50.0 mg/kg/injection, schedule: Q01DX009 (ip), vehicle: saline.
Where [6] appears, read: dose: 50.0 mg/kg/injection, schedule: Q01DX009 (ip), vehicle: Klucel (hydroxypropylcellulose) (HPC).
The mark [7] stands for this setting: dose: 100.0 mg/kg/injection, schedule: Q01DX009 (ip), vehicle: Klucel (hydroxypropylcellulose) (HPC).
[8] abbreviates: dose: 200.0 mg/kg/injection, schedule: Q01DX009 (ip), vehicle: Klucel (hydroxypropylcellulose) (HPC).

“And” between values parts separate entries of the source, which are not always exact repeats. Identical values can stand only once. Toxic doses and inconclusive results are not listed.

Consider `CC(C)(C)OCC(NC(=O)OC(C)(C)C)C(=O)O` (centres undefined), for which the T/C is, setting by setting: (dose: 50.0 mg/kg/injection, schedule: Q01DX005 (ip), vehicle: saline with Tween-80) 100 % of control; (dose: 100.0 mg/kg/injection, schedule: Q01DX005 (ip), vehicle: saline with Tween-80) 103 % of control; (dose: 200.0 mg/kg/injection, schedule: Q01DX005 (ip), vehicle: saline with Tween-80) 97 % of control.

With `NC(N)=N/N=C/c1ccc(-c2cc3ccc(/C=N/N=C(N)N)cc3s2)cc1`, the T/C runs as follows: (dose: 12.5 mg/kg/injection, schedule: Q01DX005 (ip), vehicle: Klucel (hydroxypropylcellulose) (HPC)) 114 % of control; (dose: 25.0 mg/kg/injection, schedule: Q01DX005 (ip), vehicle: Klucel (hydroxypropylcellulose) (HPC)) 116 % of control; (dose: 50.0 mg/kg/injection, schedule: Q01DX005 (ip), vehicle: Klucel (hydroxypropylcellulose) (HPC)) 121 % of control; (dose: 100.0 mg/kg/injection, schedule: Q01DX005 (ip), vehicle: Klucel (hydroxypropylcellulose) (HPC)) 118 % of control; (dose: 200.0 mg/kg/injection, schedule: Q01DX005 (ip), vehicle: Klucel (hydroxypropylcellulose) (HPC)) 107 % of control.

As to `CC(=O)c1c(O)cc2c(c1O)C1CC(C)(CCC1=C(C)C)O2` (centres undefined), the T/C reads like this: (dose: 6.25 mg/kg/injection, schedule: Q01DX009 (ip), vehicle: saline) 105 % of control; (dose: 12.5 mg/kg/injection, schedule: Q01DX009 (ip), vehicle: saline) 105 % of control; (dose: 25.0 mg/kg/injection, schedule: Q01DX009 (ip), vehicle: saline) 107 % of control; under setting [1], 90 % of control; (dose: 200.0 mg/kg/injection, schedule: Q01DX009 (ip), vehicle: saline) 89 % of control.

Regarding `COC(=O)c1ccc(/C=C/C(=O)c2ccc(C(=O)OC)cc2)cc1`, the T/C (dose: 100.0 mg/kg/injection, schedule: Q01DX001 (ip), vehicle: saline with Tween-80) was 106 % of control; the T/C (dose: 200.0 mg/kg/injection, schedule: Q01DX001 (ip), vehicle: saline with Tween-80) is 101 % of control; the T/C (dose: 400.0 mg/kg/injection, schedule: Q01DX001 (ip), vehicle: saline with Tween-80) was 98 % of control.

For the molecule `COc1cc2c[n+](C)c3c4cc5c(cc4ccc3c2cc1OC)OCO5` (tested in a mixture with another compound), the T/C is 103 % of control (dose: 3.13 mg/kg/injection, schedule: Q01DX009 (ip), vehicle: other); 159 % of control (dose: 6.25 mg/kg/injection, schedule: Q01DX009 (ip), vehicle: Klucel (hydroxypropylcellulose) (HPC)); 151 % of control (dose: 6.25 mg/kg/injection, schedule: Q01DX009 (ip), vehicle: other); 116 % of control (dose: 7.4 mg/kg/injection, schedule: Q01DX009 (ip), vehicle: other); 156 % of control (dose: 12.5 mg/kg/injection, schedule: Q01DX009 (ip), vehicle: other); 173 % of control (dose: 25.0 mg/kg/injection, schedule: Q01DX009 (ip), vehicle: other). Further, for the setting “dose: 50.0 mg/kg/injection, schedule: Q01DX009 (ip), vehicle: water”, the T/C was 99 % of control.

`O=C(CCl)Nc1ccc(Cl)cc1C(=O)c1ccccc1`: the T/C reads like this: under setting [2], 107 % of control; under setting [3], 98 % of control; under setting [4], 104 % of control.

`CCCCCCCCCCCCCCCC[N+](C)(C)CCSCC(N)=O`: the T/C (dose: 12.5 mg/kg/injection, schedule: Q04DX003 (ip), vehicle: saline) was 109 % of control; the T/C (dose: 50.0 mg/kg/injection, schedule: Q04DX003 (ip), vehicle: saline) was 111 % of control and 121 % of control.

On to `CON/C=C(C#N)/C=C/C=Nc1ccc(S(=O)(=O)Nc2onc(C)c2C)cc1`, for which the T/C under setting [2] is 100 % of control, the T/C under setting [3] was 92 % of control and the T/C under setting [4] was 98 % of control.

Turning to `Cc1cccc([NH-])n1.Cc1cccc([NH-])n1.Cc1cccc([NH-])n1.Cc1cccc([NH-])n1.[Cl][Rh][Cl]`, the T/C runs as follows: (dose: 6.25 mg/kg/injection, schedule: Q01DX009 (ip), vehicle: DMSO) 101 % of control; (dose: 12.5 mg/kg/injection, schedule: Q01DX009 (ip), vehicle: DMSO) 99 % of control; (dose: 25.0 mg/kg/injection, schedule: Q01DX009 (ip), vehicle: DMSO) 101 % of control; under setting [5], 101 % of control.

Take `c1ccc2c(c1)O[As](O[As]1Oc3ccccc3O1)O2`: the T/C was 106 % of control (dose: 2.5 mg/kg/injection, schedule: Q01DX009 (ip), vehicle: saline with Tween-80); 122 % of control (dose: 5.0 mg/kg/injection, schedule: Q01DX009 (ip), vehicle: saline with Tween-80); 161 % of control (dose: 20.0 mg/kg/injection, schedule: Q01DX009 (ip), vehicle: saline with Tween-80).

In the case of `C=CC(OC(C)=O)OC(C)=O`, the T/C (dose: 8.0 mg/kg/injection, schedule: Q01DX009 (ip), vehicle: saline) was 109 % of control; the T/C (dose: 12.0 mg/kg/injection, schedule: Q01DX009 (ip), vehicle: saline) was 118 % of control; the T/C (dose: 18.0 mg/kg/injection, schedule: Q01DX009 (ip), vehicle: saline) was 109 % of control.

As for `O=C(O)/C=C/C(=O)NCc1ccco1`, the T/C by setting is: under setting [3], 100 % of control; (dose: 100.0 mg/kg/injection, schedule: Q04DX003 (ip), vehicle: saline with Tween-80) 90 % of control; under setting [4], 109 % of control; (dose: 200.0 mg/kg/injection, schedule: Q04DX003 (ip), vehicle: saline with Tween-80) 95 % of control; (dose: 400.0 mg/kg/injection, schedule: Q01DX009 (ip), vehicle: saline with Tween-80) 100 % of control; (dose: 400.0 mg/kg/injection, schedule: Q04DX003 (ip), vehicle: saline with Tween-80) 100 % of control.

As to `CC12CC3(C)CC(C)(C1)CC(C(Cl)C(=O)NC(C)(C)C)(C2)C3` (centres undefined), the T/C reads like this: under setting [6], 97 % of control; under setting [7], 93 % of control; under setting [8], 107 % of control.

As to `COc1cccc2c1C(=O)c1c(O)c3c(c(O)c1C2=O)C[C@@](O)(/C(C)=N\O)C[C@@H]3OC1CC(N)C(O)C(C)O1` (some centres undefined), the T/C (dose: 3.13 mg/kg/injection, schedule: Q01DX009 (ip), vehicle: water) is 154 % of control; the T/C (dose: 6.25 mg/kg/injection, schedule: Q01DX009 (ip), vehicle: water) is 165 % of control; the T/C (dose: 6.25 mg/kg/injection, schedule: Q04DX003 (ip), vehicle: water) is 115 % of control and 124 % of control; the T/C (dose: 12.5 mg/kg/injection, schedule: Q01DX009 (ip), vehicle: water) was 183 % of control; the T/C (dose: 12.5 mg/kg/injection, schedule: Q04DX003 (ip), vehicle: water) is 116 % of control and 117 % of control; the T/C (dose: 25.0 mg/kg/injection, schedule: Q01DX009 (ip), vehicle: water) was 100 % of control. Besides, the T/C is 123 % of control (dose: 25.0 mg/kg/injection, schedule: Q04DX003 (ip), vehicle: water); 119 % of control (dose: 100.0 mg/kg/injection, schedule: Q04DX003 (ip), vehicle: water); 101 % of control (dose: 200.0 mg/kg/injection, schedule: Q04DX003 (ip), vehicle: water).

With `CCOC(=O)CCS(=O)c1ccccc1` (centres undefined), the T/C reads like this: under setting [6], 114 % of control; under setting [7], 109 % of control; under setting [8], 104 % of control.

For the molecule `CCOC(=O)Cc1c[nH]c2ccc(N(CCCl)CCCl)cc12`, the T/C reads like this: (dose: 5.0 mg/kg/injection, schedule: Q04DX003 (ip), vehicle: Klucel (hydroxypropylcellulose) (HPC)) 204 % of control; (dose: 8.0 mg/kg/injection, schedule: Q04DX003 (ip), vehicle: Klucel (hydroxypropylcellulose) (HPC)) 245 % of control; (dose: 12.5 mg/kg/injection, schedule: Q04DX003 (ip), vehicle: Klucel (hydroxypropylcellulose) (HPC)) 245 % of control.

For `Cc1cc(C)c(S(=O)(=O)NN)c(C)c1`, the T/C by setting is: (dose: 25.0 mg/kg/injection, schedule: Q01DX009 (ip), vehicle: saline with Tween-80) 104 % of control; under setting [2], 104 % of control; under setting [3], 100 % of control; under setting [4], 95 % of control.

`COc1cc(C)c(C)cc1C1(c2cc(C)c(C)cc2O)C(=O)c2ccccc2C1=O`: the T/C under setting [5] was 100 % of control and the T/C under setting [1] is 93 % of control.

`COC1(OC)C2C(Br)=C(Br)C1C1CCC/C=C\CC12` (centres undefined): the T/C is, setting by setting: (dose: 100.0 mg/kg/injection, schedule: Q04DX002 (ip), vehicle: saline with Tween-80) 103 % of control; (dose: 200.0 mg/kg/injection, schedule: Q04DX002 (ip), vehicle: saline with Tween-80) 103 % of control; (dose: 400.0 mg/kg/injection, schedule: Q04DX002 (ip), vehicle: saline with Tween-80) 109 % of control.
